From ChEMBL document CHEMBL3045785, “Synthesis and anti-inflammatory activity of 1-acetyl/propanoyl-5-aryl-3-(4-morpholinophenyl)-4,5-dihydro-1H-pyrazole derivatives” (2012)

Assays:
Rattus norvegicus [1] = test: Anti-inflammatory activity in Rattus norvegicus albino (rat) assessed as inhibition of carrageenan-induced paw edema at 10 mg/kg, ip administered 1 hr prior tocarrageenan-challenge measured after 3 hr relative to control; assay type: functional; conditions: route intraperitoneal
Rattus norvegicus [2] = test: Anti-inflammatory activity in Rattus norvegicus albino (rat) assessed as inhibition of carrageenan-induced paw edema at 10 mg/kg, ip administered 1 hr prior tocarrageenan-challenge measured after 3 hr relative to indomethacin; assay type: functional; conditions: route intraperitoneal

SMILES | inhibition in vivo at 10 mg/kg (Rattus norvegicus [1]) [%] | inhibition in vivo at 10 mg/kg (Rattus norvegicus [2]) [%]
CCC(=O)N1N=C(c2ccc(N3CCOCC3)cc2)CC1c1cc(OC)c(OC)c(OC)c1 (stereo not given) | 1.08 | 1.84
CCC(=O)N1N=C(c2ccc(N3CCOCC3)cc2)CC1c1ccccc1OC (stereo not given) | 6.14 | 10.4
CCC(=O)N1N=C(c2ccc(N3CCOCC3)cc2)CC1c1cc(OC)cc(OC)c1 (stereo not given) | 15.9 | 27
CCC(=O)N1N=C(c2ccc(N3CCOCC3)cc2)CC1c1cccs1 (stereo not given) | 1.08 | 1.84
CCC(=O)N1N=C(c2ccc(N3CCOCC3)cc2)CC1c1ccc(Br)cc1 (stereo not given) | 18.4 | 31.3
COc1ccccc1C1CC(c2ccc(N3CCOCC3)cc2)=NN1C(C)=O (stereo not given) | 31.1 | 52.8
COc1ccc(C2CC(c3ccc(N4CCOCC4)cc3)=NN2C(C)=O)cc1OC (stereo not given) | 5.78 | 9.82
CCC(=O)N1N=C(c2ccc(N3CCOCC3)cc2)CC1c1ccc(OC)c(OC)c1 (stereo not given) | 31.1 | 52.8
COc1ccc2c(c1)c(CC(=O)O)c(C)n2C(=O)c1ccc(Cl)cc1 [INDOMETHACIN] | 58.8 | –
COc1cc(OC)cc(C2CC(c3ccc(N4CCOCC4)cc3)=NN2C(C)=O)c1 (stereo not given) | 13.4 | 22.7
COc1cc(C2CC(c3ccc(N4CCOCC4)cc3)=NN2C(C)=O)cc(OC)c1OC (stereo not given) | 3.61 | 6.13
CC(=O)N1N=C(c2ccc(N3CCOCC3)cc2)CC1c1ccc(Br)cc1 (stereo not given) | 11.2 | 19
CC(=O)N1N=C(c2ccc(N3CCOCC3)cc2)CC1c1cccs1 (stereo not given) | 6.86 | 11.7
